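Exposure lasted 48 hours, with cells grown in 96-well plates and compounds tested at five concentrations. The concentration for 50% growth inhibition is given as GI50. TGI is the concentration that stops growth completely.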
What was measured:
Assay in all cases: inhibition of tumour cell growth, NCI panel, 48 h
[1] = system: 786-0 renal
[2] = system: A498 renal
[3] = system: A549 NSCLC
[4] = system: ACHN renal
[5] = system: BT-549 breast
[6] = system: CAKI-1 renal
[7] = system: CCRF-CEM leukemia
[8] = system: COLO 205 colon
[9] = system: DU-145 prostate
[10] = system: EKVX NSCLC
[11] = system: HCC-2998 colon
[12] = system: HCT-116 colon
[13] = system: HCT-15 colon
[14] = system: HOP-62 NSCLC
[15] = system: HOP-92 NSCLC
[16] = system: HS 578T breast
[17] = system: HT29 colon
[18] = system: IGROV1 ovarian
[19] = system: K-562 leukemia
[20] = system: KM12 colon
[21] = system: LOX IMVI melanoma
[22] = system: M14 melanoma
[23] = system: MALME-3M melanoma
[24] = system: MCF7 breast
[25] = system: MDA-MB-231 breast
[26] = system: MDA-MB-435
[27] = system: MOLT-4 leukemia
[28] = system: NCI-H226 lung
[29] = system: NCI-H23 lung
[30] = system: NCI-H460 lung
[31] = system: NCI-H522 lung
[32] = system: NCI/ADR-RES ovarian
[33] = system: OVCAR-3 ovarian
[34] = system: OVCAR-4 ovarian
[35] = system: OVCAR-5 ovarian
[36] = system: OVCAR-8 ovarian
[37] = system: PC-3 prostate
[38] = system: RPMI-8226 leukemia
[39] = system: RXF 393 renal
[40] = system: SF-268 CNS
[41] = system: SF-295 CNS
[42] = system: SF-539 CNS
[43] = system: SK-MEL-2 melanoma
[44] = system: SK-MEL-28 melanoma
[45] = system: SK-MEL-5 melanoma
[46] = system: SK-OV-3 ovarian
[47] = system: SN12C renal
[48] = system: SNB-19 CNS
[49] = system: SNB-75 CNS
[50] = system: SR leukemia
[51] = system: SW-620 colon
[52] = system: T-47D breast
[53] = system: TK-10 renal
[54] = system: U251 CNS
[55] = system: UACC-257 melanoma
[56] = system: UACC-62 melanoma
[57] = system: UO-31 renal
[58] = system: HL-60(TB) leukemia

COc1cc2c(c3oc(-c4ccc(O)cc4)c(O)c(=O)c13)CCC(C)(C)O2 gave a GI50 [1] of 78.8 nM, a TGI [1] of 214 nM and a GI50 [2] of 148 nM. For the same molecule, the TGI [2] was 538 nM, the GI50 [3] was 270 nM and the TGI [3] was 729 nM. It also gave a GI50 [4] of 145 nM, a GI50 [5] of 279 nM and a TGI [5] of 836 nM. The GI50 [6] was 245 nM, the TGI [6] was 1170 nM and the GI50 [7] was 359 nM. For the same molecule, the TGI [7] was over 100000 nM, the GI50 [8] was 2180 nM and the TGI [8] was 5020 nM. It also gave a GI50 [9] of 295 nM, a TGI [9] of over 44900 nM and a GI50 [10] of 308 nM. It also gave a GI50 [11] of 254 nM, a TGI [11] of 672 nM and a GI50 [12] of 172 nM. The TGI [12] was 372 nM, the GI50 [13] was 169 nM and the TGI [13] was 392 nM. It also gave a GI50 [14] of 71.2 nM, a TGI [14] of 165 nM and a GI50 [15] of 217 nM. For the same molecule, the TGI [15] was 902 nM, the GI50 [16] was 90.3 nM and the GI50 [17] was 3120 nM. It also gave a TGI [17] of 10900 nM, a GI50 [18] of 158 nM and a TGI [18] of 526 nM. For the same molecule, the GI50 [19] was 112 nM, the GI50 [20] was 384 nM and the TGI [20] was 23400 nM. The GI50 [21] was 104 nM, the TGI [21] was 328 nM and the GI50 [22] was 212 nM. For the same molecule, the TGI [22] was 523 nM, the GI50 [23] was 1420 nM and the TGI [23] was over 100000 nM. The GI50 [24] was 381 nM, the TGI [24] was over 100000 nM and the GI50 [25] was 101 nM. It also gave a TGI [25] of 312 nM, a GI50 [26] of 42.7 nM and a TGI [26] of 204 nM. For the same molecule, the GI50 [27] was 191 nM, the GI50 [28] was 536 nM and the TGI [28] was 2550 nM. For the same molecule, the GI50 [29] was 83.6 nM, the TGI [29] was 221 nM and the GI50 [30] was 99.6 nM. The TGI [30] was 351 nM, the GI50 [31] was 77.6 nM and the TGI [31] was 232 nM. The GI50 [32] was 309 nM, the TGI [32] was 829 nM and the GI50 [33] was 431 nM. The TGI [33] was 27400 nM, the GI50 [34] was 900 nM and the TGI [34] was 2880 nM. The GI50 [35] was 229 nM, the TGI [35] was 622 nM and the GI50 [36] was 292 nM. It also gave a TGI [36] of 856 nM, a GI50 [37] of 1170 nM and a TGI [37] of over 100000 nM. It also gave a GI50 [38] of 305 nM, a TGI [38] of 787 nM and a GI50 [39] of 37.9 nM. The TGI [39] was 176 nM, the GI50 [40] was 122 nM and the GI50 [41] was 42.6 nM. For the same molecule, the TGI [41] was 194 nM, the GI50 [42] was 24.1 nM and the TGI [42] was 58.6 nM. The GI50 [43] was 326 nM, the GI50 [44] was 210 nM and the TGI [44] was 930 nM. For the same molecule, the GI50 [45] was 90.8 nM, the TGI [45] was 241 nM and the GI50 [46] was 401 nM. It also gave a TGI [46] of 5400 nM, a GI50 [47] of 271 nM and a TGI [47] of 884 nM. The GI50 [48] was 160 nM, the TGI [48] was over 23400 nM and the GI50 [49] was 103 nM. For the same molecule, the TGI [49] was 283 nM, the GI50 [50] was 77.3 nM and the GI50 [51] was 87.2 nM. The TGI [51] was 310 nM, the GI50 [52] was 767 nM and the GI50 [53] was 500 nM. The TGI [53] was over 100000 nM, the GI50 [54] was 107 nM and the TGI [54] was 800 nM. For the same molecule, the GI50 [55] was 291 nM, the TGI [55] was 778 nM and the GI50 [56] was 199 nM. The TGI [56] was 616 nM, the GI50 [57] was 28.1 nM and the TGI [57] was 75 nM.
NC(N)=N/N=C/c1c(-c2ccccc2[N+](=O)[O-])nc2sccn12 gave a TGI [1] of 35300 nM, a TGI [2] of 37700 nM and a TGI [3] of over 100000 nM. It also gave a TGI [4] of over 100000 nM, a TGI [5] of over 100000 nM and a TGI [6] of over 100000 nM. The TGI [7] was 55000 nM, the TGI [8] was 29400 nM and the TGI [9] was over 100000 nM. For the same molecule, the TGI [10] was over 100000 nM, the TGI [12] was 34400 nM and the TGI [13] was over 100000 nM. For the same molecule, the TGI [58] was 40400 nM, the TGI [14] was 69500 nM and the TGI [15] was over 100000 nM. For the same molecule, the TGI [16] was over 100000 nM, the TGI [17] was 81600 nM and the TGI [18] was over 100000 nM. It also gave a TGI [19] of 33800 nM, a TGI [20] of 46900 nM and a TGI [21] of 44400 nM. For the same molecule, the TGI [22] was 31200 nM, the TGI [23] was 32300 nM and the TGI [24] was 38100 nM. For the same molecule, the TGI [25] was 33400 nM, the TGI [26] was 35100 nM and the TGI [27] was 46000 nM. It also gave a TGI [28] of 39100 nM, a TGI [29] of 86500 nM and a TGI [30] of 39700 nM. It also gave a TGI [31] of 39800 nM, a TGI [32] of over 100000 nM and a TGI [33] of over 100000 nM. The TGI [34] was over 100000 nM, the TGI [35] was over 100000 nM and the TGI [36] was over 100000 nM. For the same molecule, the TGI [37] was 71100 nM, the TGI [38] was 42800 nM and the TGI [39] was 32400 nM. For the same molecule, the TGI [40] was over 100000 nM, the TGI [41] was 50000 nM and the TGI [42] was 37600 nM. For the same molecule, the TGI [43] was 30400 nM, the TGI [44] was over 100000 nM and the TGI [45] was 30800 nM. For the same molecule, the TGI [46] was over 100000 nM, the TGI [47] was over 100000 nM and the TGI [48] was 77400 nM. For the same molecule, the TGI [49] was 34200 nM, the TGI [50] was 35100 nM and the TGI [51] was 38000 nM. For the same molecule, the TGI [52] was 59000 nM, the TGI [53] was 57000 nM and the TGI [54] was 31200 nM. For the same molecule, the TGI [55] was 35600 nM, the TGI [56] was 32700 nM and the TGI [57] was 90300 nM.
Cc1nc2ccc(F)cc2c2c1CCS2 gave a TGI [1] of over 100000 nM, a TGI [2] of over 100000 nM and a TGI [3] of over 100000 nM. It also gave a TGI [4] of over 100000 nM, a TGI [5] of over 100000 nM and a TGI [7] of over 100000 nM. The TGI [8] was over 100000 nM, the TGI [9] was over 100000 nM and the TGI [10] was over 100000 nM. The TGI [11] was over 100000 nM, the TGI [12] was over 100000 nM and the TGI [13] was over 100000 nM. For the same molecule, the TGI [58] was 47600 nM, the TGI [14] was over 100000 nM and the TGI [15] was over 100000 nM. It also gave a TGI [16] of over 100000 nM, a TGI [17] of over 100000 nM and a TGI [18] of over 100000 nM. It also gave a TGI [19] of 94500 nM, a TGI [20] of over 100000 nM and a TGI [21] of over 100000 nM. It also gave a TGI [23] of over 100000 nM, a TGI [24] of over 100000 nM and a TGI [25] of 86900 nM. For the same molecule, the TGI [26] was over 100000 nM, the TGI [27] was over 100000 nM and the TGI [29] was over 100000 nM. It also gave a TGI [30] of over 100000 nM, a TGI [31] of over 100000 nM and a TGI [32] of over 100000 nM. The TGI [33] was over 100000 nM, the TGI [34] was over 100000 nM and the TGI [36] was over 100000 nM. It also gave a TGI [37] of over 100000 nM, a TGI [38] of over 100000 nM and a TGI [39] of 73900 nM. The TGI [40] was over 100000 nM, the TGI [41] was over 100000 nM and the TGI [42] was over 100000 nM. The TGI [44] was over 100000 nM, the TGI [45] was over 100000 nM and the TGI [48] was over 100000 nM. It also gave a TGI [49] of over 100000 nM, a TGI [50] of over 100000 nM and a TGI [51] of over 100000 nM. For the same molecule, the TGI [52] was over 100000 nM, the TGI [53] was over 100000 nM and the TGI [54] was over 100000 nM. It also gave a TGI [55] of over 100000 nM, a TGI [56] of over 100000 nM and a TGI [57] of over 100000 nM.
